ChEMBL document CHEMBL4602601, “Pharmaceutical and medicinal significance of sulfur (SVI)-Containing motifs for drug discovery: A critical review” (Eur J Med Chem, 2019)

Assays:
[1] = Half life in rat; assay type: ADME; conditions: in vivo
Chikungunya virus = experiment: Antiviral activity against CHIKV; assay type: functional, organism-based
[2] = Inhibition of HIV protease; parameters: species or system Human immunodeficiency virus
THP-1 = experiment: Cytotoxicity against human THP1 cells assessed as reduction in cell viability; assay type: functional, cell-based
[3] = Antagonist activity at cannabinoid receptor (unknown origin); parameters: species or system Homo sapiens
Carbonic anhydrase 2 = Carbonic anhydrase 2 (Homo sapiens, UniProt P00918); experiment: Inhibition of human carbonic anhydrase 2
Carbonic anhydrase 4 = Carbonic anhydrase 4 (Homo sapiens, UniProt P22748); experiment: Inhibition of human carbonic anhydrase 4
Sequence of Carbonic anhydrase 4 (P22748 whole entry): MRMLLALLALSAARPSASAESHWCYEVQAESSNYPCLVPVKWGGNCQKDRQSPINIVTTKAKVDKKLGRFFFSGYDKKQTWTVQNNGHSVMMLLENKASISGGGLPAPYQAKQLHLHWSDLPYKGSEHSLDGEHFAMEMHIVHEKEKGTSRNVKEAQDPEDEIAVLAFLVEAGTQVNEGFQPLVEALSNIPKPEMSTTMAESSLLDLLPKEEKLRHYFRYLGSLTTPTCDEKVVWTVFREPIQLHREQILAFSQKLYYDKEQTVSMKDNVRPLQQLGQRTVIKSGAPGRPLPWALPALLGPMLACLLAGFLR

[4] = molecular target: 5-hydroxytryptamine receptor 6 (Homo sapiens, UniProt P50406); experiment: Antagonist activity at 5-HT6 receptor (unknown origin)
Sequence of 5-hydroxytryptamine receptor 6 (P50406 whole entry): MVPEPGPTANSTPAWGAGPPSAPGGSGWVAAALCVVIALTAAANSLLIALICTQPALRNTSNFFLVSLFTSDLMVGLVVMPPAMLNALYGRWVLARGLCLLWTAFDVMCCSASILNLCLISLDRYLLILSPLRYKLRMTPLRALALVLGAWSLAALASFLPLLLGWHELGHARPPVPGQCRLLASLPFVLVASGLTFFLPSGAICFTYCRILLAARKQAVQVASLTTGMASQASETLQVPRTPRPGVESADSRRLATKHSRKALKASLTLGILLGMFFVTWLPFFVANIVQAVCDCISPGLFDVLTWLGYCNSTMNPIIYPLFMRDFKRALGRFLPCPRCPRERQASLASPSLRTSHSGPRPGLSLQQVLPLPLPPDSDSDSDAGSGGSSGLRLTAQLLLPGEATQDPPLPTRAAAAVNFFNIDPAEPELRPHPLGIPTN

Carbonic anhydrase 1 = Carbonic anhydrase 1 (Homo sapiens, UniProt P00915); experiment: Inhibition of human carbonic anhydrase 1
Sequence of Carbonic anhydrase 1 (P00915 whole entry): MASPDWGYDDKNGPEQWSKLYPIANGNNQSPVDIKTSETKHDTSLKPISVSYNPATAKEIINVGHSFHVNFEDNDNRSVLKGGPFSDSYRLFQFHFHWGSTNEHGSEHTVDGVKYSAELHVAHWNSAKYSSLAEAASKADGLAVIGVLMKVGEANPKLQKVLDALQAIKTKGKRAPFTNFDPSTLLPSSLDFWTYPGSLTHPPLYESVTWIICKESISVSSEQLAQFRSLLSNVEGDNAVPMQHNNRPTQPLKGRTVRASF

[5] = molecular target: T1, Prostaglandin G/H synthase 2 (Rattus norvegicus, UniProt P35355); experiment: Inhibition of COX2 isolated from rat seminal vesicles assessed as reduction of PGG2 to PGH2 using arachidonic acid substrate preincubated for 15 mins followed by substrate addition
T1 sequence (P35355 whole entry): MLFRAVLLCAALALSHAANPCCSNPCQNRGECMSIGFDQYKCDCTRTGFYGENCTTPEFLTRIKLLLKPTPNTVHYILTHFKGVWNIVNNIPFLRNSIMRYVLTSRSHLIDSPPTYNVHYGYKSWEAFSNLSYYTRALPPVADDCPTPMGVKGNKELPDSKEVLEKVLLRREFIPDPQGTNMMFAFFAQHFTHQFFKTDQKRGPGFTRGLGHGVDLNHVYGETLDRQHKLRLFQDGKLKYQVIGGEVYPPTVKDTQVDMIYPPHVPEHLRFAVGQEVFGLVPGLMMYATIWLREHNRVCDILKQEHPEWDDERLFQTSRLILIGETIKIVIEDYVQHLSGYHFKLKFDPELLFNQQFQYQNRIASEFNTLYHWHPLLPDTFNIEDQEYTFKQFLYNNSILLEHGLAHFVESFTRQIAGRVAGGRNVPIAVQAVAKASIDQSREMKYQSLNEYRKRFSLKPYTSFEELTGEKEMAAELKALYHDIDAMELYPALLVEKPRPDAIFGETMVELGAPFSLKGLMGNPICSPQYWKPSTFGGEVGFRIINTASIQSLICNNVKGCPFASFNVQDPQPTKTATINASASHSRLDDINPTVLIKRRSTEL

[6] = Inhibition of rat 5'-nucleotidase
Cannabinoid receptor 1 [7] = molecular target: T2, Cannabinoid receptor 1 (Homo sapiens, UniProt P21554); experiment: Antagonist activity at human cannabinoid CB1 receptor
T2 sequence (P21554 whole entry): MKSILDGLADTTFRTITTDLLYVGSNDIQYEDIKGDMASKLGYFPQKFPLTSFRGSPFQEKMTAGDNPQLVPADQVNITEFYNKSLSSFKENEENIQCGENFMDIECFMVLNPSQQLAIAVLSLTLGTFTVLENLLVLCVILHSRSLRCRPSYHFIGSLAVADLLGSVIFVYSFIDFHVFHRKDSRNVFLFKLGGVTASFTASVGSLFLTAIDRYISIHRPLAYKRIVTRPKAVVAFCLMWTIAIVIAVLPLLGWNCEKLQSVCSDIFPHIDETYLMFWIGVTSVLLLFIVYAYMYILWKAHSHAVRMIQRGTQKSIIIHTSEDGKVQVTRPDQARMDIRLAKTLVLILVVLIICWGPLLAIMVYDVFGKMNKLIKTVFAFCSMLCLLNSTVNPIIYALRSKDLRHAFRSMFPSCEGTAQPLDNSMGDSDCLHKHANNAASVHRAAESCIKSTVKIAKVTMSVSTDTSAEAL

[8] = Inhibition of HIV integrase; parameters: species or system Human immunodeficiency virus
[9] = Inhibition of HIV RT; parameters: species or system Human immunodeficiency virus
[10] = test system: Human immunodeficiency virus 1; experiment: Antiviral activity against HIV1; assay type: functional, organism-based
Cannabinoid receptor 2 = Cannabinoid receptor 2 (Homo sapiens, UniProt P34972); experiment: Antagonist activity at human cannabinoid CB2 receptor
Sequence of Cannabinoid receptor 2 (P34972 whole entry): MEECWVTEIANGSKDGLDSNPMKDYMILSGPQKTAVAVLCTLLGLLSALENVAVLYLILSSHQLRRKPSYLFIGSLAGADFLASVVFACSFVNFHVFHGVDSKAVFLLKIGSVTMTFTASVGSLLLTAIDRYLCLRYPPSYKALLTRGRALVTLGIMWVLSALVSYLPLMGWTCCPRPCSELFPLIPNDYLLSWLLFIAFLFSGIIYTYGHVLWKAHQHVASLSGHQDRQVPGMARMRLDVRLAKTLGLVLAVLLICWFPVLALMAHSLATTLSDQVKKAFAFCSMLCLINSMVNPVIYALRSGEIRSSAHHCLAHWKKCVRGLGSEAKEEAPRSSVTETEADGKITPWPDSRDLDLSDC

Cannabinoid receptor 1 [11] = molecular target: T2, Cannabinoid receptor 1; experiment: Antagonist activity at cannabinoid CB1 receptor (unknown origin)
Leishmania amazonensis = experiment: Antileishmanial activity against Leishmania amazonensis; assay type: functional, organism-based
Leishmania infantum = experiment: Antileishmanial activity against Leishmania infantum; assay type: functional, organism-based
Trypanosoma cruzi = experiment: Antitrypanosomal activity against Trypanosoma cruzi; assay type: functional, organism-based

N#Cc1ccc(S(=O)(=O)Nc2cccc(C(c3c(O)c4c(oc3=O)CCCCCC4)C3CC3)c2)cc1 (configuration not stated)
half-life [1]: 6 h
IC50 (Chikungunya virus): 1.5 nM
Ki [2]: 0.8 nM

O=S(=O)(Nc1ccc([Se][Se]c2ccc(NS(=O)(=O)c3ccc(F)cc3)cc2)cc1)c1ccc(F)cc1
IC50 (THP-1): 2800 nM

Cc1ccc(S(=O)(=O)Oc2ccc3c(CSc4nc5ccccc5c(=O)[nH]4)cc(=O)oc3c2)cc1
EC50 (Chikungunya virus): 10200 nM

O=S(=O)(NCc1ccc(-c2ccc(F)cc2F)cn1)c1cc2cc(Cl)ccc2[nH]1
IC50 [3]: 3 nM

COc1ccc(C2=NN(C(C)=O)C(c3ccc(OS(N)(=O)=O)cc3)C2)cc1 (configuration not stated)
IC50 (Carbonic anhydrase 2): 0.4 nM
IC50 (Carbonic anhydrase 4): 20.5 nM

O=S(=O)(Nc1ccc2sc(N3CCNCC3)nc2c1)c1cccc2ccccc12
Ki [4]: 500 nM

NS(=O)(=O)c1ccc(N2C(=O)CC/C2=C\C(=O)c2cccc(F)c2)cc1
IC50 (Carbonic anhydrase 2): 0.46 nM

O=S(=O)(Cl)c1c(Cl)nc2n1CCS2
Ki [4]: 8.4 nM

CC(=O)/C(=N\Nc1cccc(-n2nc(C(=O)Nc3nnc(S(N)(=O)=O)s3)c(C(=O)Nc3nnc(S(N)(=O)=O)s3)c2-c2ccccc2)c1)C(=O)c1ccccc1
Ki (Carbonic anhydrase 1): 119 nM

C/C(=N\NC(=O)CNC(=O)c1cccc(S(=O)(=O)Nc2ccccc2Cl)c1)c1ccc(F)cc1
IC50 [5]: 8400 nM

COc1cc(/C=C2\C=C(c3ccc(Cl)cc3)N(c3ccc(S(N)(=O)=O)cc3)C2=O)cc(OC)c1OC
IC50 [5]: 420 nM

O=S(=O)(Nc1ccc2[nH]ccc2c1)c1c(Cl)nc2n1CCS2
Ki [4]: 16.9 nM

NS(=O)(=O)c1ccc(N2C(=O)/C(=C/c3ccc(C(F)(F)F)cc3)C=C2c2ccc(Cl)cc2)cc1
IC50 [5]: 620 nM

CCCC(=O)/C(=N/Nc1cccc(-n2nc(C(=O)Nc3nnc(S(N)(=O)=O)s3)c(C(=O)Nc3nnc(S(N)(=O)=O)s3)c2-c2ccccc2)c1)C(=O)OCC
Ki (Carbonic anhydrase 2): 884 nM

COc1ccc(/C=C/C(=O)/C(=N/Nc2ccc(S(N)(=O)=O)cc2)N2CCOCC2)cc1
IC50 [6]: 330 nM

Cc1cc(S(=O)(=O)N2CCc3c(nc(C(C)(C)C)n3CC3CC3)C2)no1
EC50 (Cannabinoid receptor 1 [7]): 5.1 nM

CN(C)c1cccnc1N1CCN(C(=O)c2cc3cc(NS(C)(=O)=O)ccc3[nH]2)CC1
IC50 [8]: 36 nM
IC50 [9]: > 100000 nM
IC50 [10]: 21 nM

O=C(CNC(=O)c1cccc(S(=O)(=O)Nc2ccccc2Cl)c1)N/N=C/c1ccc(C(F)(F)F)cc1
IC50 [5]: 8900 nM

CCn1cnc2c(Oc3ccc(/C=C/C(=O)c4ccc(NS(=O)(=O)c5ccccc5C)cc4)cc3)ncnc21
EC50 (Chikungunya virus): 51.6 µg/mL

CC(C)c1ccc(S(=O)(=O)Nc2ccc3nc(N4CCN(C)CC4)sc3c2)cc1
IC50 [4]: 14000 nM

O=C(NN1CCCCC1)c1cn(-c2ccc(Cl)cc2Cl)c(-c2ccc(C#Cc3ccc(C(F)(F)F)cc3)s2)c1CNS(=O)(=O)N1CCCC1
Ki (Cannabinoid receptor 1 [7]): 0.3 nM
Ki (Cannabinoid receptor 2): 21 nM
EC50 (Cannabinoid receptor 1 [11]): 3 nM

CN1CCN(c2nc3cc(NS(=O)(=O)c4cccc5ccccc45)ccc3s2)CC1
IC50 [4]: 3900 nM

NS(=O)(=O)c1ccc(N2C(=O)CC/C2=C\C(=O)c2ccc([N+](=O)[O-])cc2Cl)cc1
IC50 (Carbonic anhydrase 2): 0.46 nM

O=c1ccnc(SCc2cc(=O)oc3cc(OS(=O)(=O)c4ccccc4[N+](=O)[O-])ccc23)[nH]1
EC50 (Chikungunya virus): 13000 nM

CCOc1ccc(-c2ccc(CNS(=O)(=O)c3cc4cc(Cl)ccc4[nH]3)cc2)cn1
IC50 [3]: 4 nM

Cc1cc(S(=O)(=O)N2CCc3c(nc(CC(C)(C)C)n3CC3CC3)C2)no1
EC50 (Cannabinoid receptor 1 [7]): 7 nM

O=S(=O)(Nc1cccc2cnccc12)c1ccc2ccccc2c1
IC50 (Leishmania amazonensis): 42900 nM
IC50 (Leishmania infantum): 23000 nM
IC50 (Trypanosoma cruzi): 224000 nM

CC(=O)N1CCc2ccc(NS(=O)(=O)c3c(Cl)nc4n3CCS4)cc21
Ki [4]: 5.4 nM
